What is called EC50 is the concentration needed to bring the measured effect to its halfway point.

The assay concerns the target human NAMPT (Homo sapiens (Human), UniProt P43490). The experiment in a line: Human recombinant enzyme assay (NMN fluorescence biochemical assay). The note with it: 6 nM human NAMPT, 60 min; for AC1.4 Human: concentration of compound that generates 40% higher activity over basal; for EC50: concentration that gives half-maximal activation. The method, boiled down:
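Recombinant human NAMPT (6 nM) with 2.5 mM ATP, […] PRPP and […] nicotinamide in HEPES pH 7.2 with DTT, CHAPS, NaCl, MgCl2; 60 min at ambient temperature. NMN derivatised with acetophenone/KOH/formic acid, fluorescence read at 355/460 nm. AC1.4 (40% above basal) and EC50 reported.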

Chain of human NAMPT (P43490 whole entry): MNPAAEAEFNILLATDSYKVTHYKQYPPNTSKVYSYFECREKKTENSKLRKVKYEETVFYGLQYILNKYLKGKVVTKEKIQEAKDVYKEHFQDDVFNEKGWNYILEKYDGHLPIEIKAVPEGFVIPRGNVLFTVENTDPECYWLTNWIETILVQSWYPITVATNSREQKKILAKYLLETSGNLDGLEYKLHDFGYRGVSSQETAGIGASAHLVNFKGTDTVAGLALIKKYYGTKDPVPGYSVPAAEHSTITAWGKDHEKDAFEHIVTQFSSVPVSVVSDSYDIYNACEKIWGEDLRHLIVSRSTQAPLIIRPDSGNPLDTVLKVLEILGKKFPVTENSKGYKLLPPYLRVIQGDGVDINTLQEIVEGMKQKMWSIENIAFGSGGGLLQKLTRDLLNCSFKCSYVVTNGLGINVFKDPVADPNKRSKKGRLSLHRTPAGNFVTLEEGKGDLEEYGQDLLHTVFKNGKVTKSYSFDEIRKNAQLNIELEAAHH

Regarding `Cc1nc(C(=O)N2CC(OC(F)(F)F)C2)nc(NCCc2cn[nH]c2)c1C` [Compound 81, (4-((2-(1H-pyrazol-4-yl)ethyl)amino)-5,6-dimethylpyrimidin-2-yl)(3-(trifluoromethoxy)azetidin-1-yl)methanone], the “AC1.4 Human” value worked out at 0.891 µM and the EC50 was 5.98 µM.

Regarding `Cc1nc(C(=O)NCCC(C)(C)C(F)(F)F)nc(NCCc2cn[nH]c2)c1C` [Compound 143, 4-((2-(1H-pyrazol-4-yl)ethyl)amino)-5,6-dimethyl-N-(4,4,4-trifluoro-3,3-dimethylbutyl)pyrimidine-2-carboxamide], the “AC1.4 Human” value was found to be 4.433 µM and the EC50 is 46 µM.

Consider `Cc1nc(C(=O)N2CCC(C#N)(c3ccccc3)CC2)nc(NCCc2cn[nH]c2)c1C` [Compound 96, 1-(4-((2-(1H-pyrazol-4-yl)ethyl)amino)-5,6-dimethylpyrimidine-2-carbonyl)-4-phenylpiperidine-4-carbonitrile], for which the “AC1.4 Human” value stood at 1.3075 µM and the EC50 is 8.51 µM.

In the case of `Cc1nc(C(=O)N2CCC[C@@H]2c2ccccn2)nc(NCCc2cn[nH]c2)c1C` [Compound 126, (R)-(4-((2-(1H-pyrazol-4-yl)ethyl)amino)-5,6-dimethylpyrimidin-2-yl)(2-(pyridin-2-yl)pyrrolidin-1-yl)methanone], the “AC1.4 Human” value came out at 3.1455 µM and the EC50 was determined as 13.4 µM.

Consider `Cc1nc(C(=O)N2CCC(c3c[nH]c4ccccc34)CC2)nc(NCCc2cn[nH]c2)c1C` [Compound 6, (4-(1H-indol-3-yl)piperidin-1-yl)(4-((2-(1H-pyrazol-4-yl)ethyl)amino)-5,6-dimethylpyrimidin-2-yl)methanone], for which the “AC1.4 Human” value was found to be 0.0385 µM and the EC50 was 1.84 µM.

Regarding `Cc1cccc([C@@H](C)NC(=O)c2nc(C)c(C)c(NCCc3cn[nH]c3)n2)n1` [Compound 78, (R)-4-((2-(1H-pyrazol-4-yl)ethyl)amino)-5,6-dimethyl-N-(1-(6-methylpyridin-2-yl)ethyl)pyrimidine-2-carboxamide], the “AC1.4 Human” value is 0.81 µM and the EC50 was found to be 5.62 µM.

Take `Cc1nc(C(=O)NCC2(c3cccc(F)c3)COC2)nc(NCCc2cn[nH]c2)c1C` [Compound 74, 4-((2-(1H-pyrazol-4-yl)ethyl)amino)-N-((3-(3-fluorophenyl)oxetan-3-yl)methyl)-5,6-dimethylpyrimidine-2-carboxamide]: the “AC1.4 Human” value is 0.715 µM and the EC50 is 8.01 µM.

Turning to `Cc1nc(C(=O)N2CC(c3ccccc3)C2)nc(NCCc2cn[nH]c2)c1C` [Compound 76, (4-((2-(1H-pyrazol-4-yl)ethyl)amino)-5,6-dimethylpyrimidin-2-yl)(3-phenylazetidin-1-yl)methanone], the “AC1.4 Human” value amounted to 0.773 µM and the EC50 came to 6.83 µM.

For the molecule `Cc1nc(C(=O)N2CCC[C@@H]2c2ccccc2)nc(NCCc2cn[nH]c2)c1C` [Compound 38, (R)-(4-((2-(1H-pyrazol-4-yl)ethyl)amino)-5,6-dimethylpyrimidin-2-yl)(2-phenylpyrrolidin-1-yl)methanone], the “AC1.4 Human” value came out at 0.1635 µM and the EC50 stood at 3.83 µM.

Regarding `Cc1nc(C(=O)N2CC(c3cccc(F)c3)C2)nc(NCCc2cn[nH]c2)c1C` [Compound 18, (4-((2-(1H-pyrazol-4-yl)ethyl)amino)-5,6-dimethylpyrimidin-2-yl)(3-(3-fluorophenyl)azetidin-1-yl)methanone], the “AC1.4 Human” value was 0.0745 µM and the EC50 was determined as 0.597 µM.

For `Cc1nc(C(=O)N2CC3(C2)C(=O)Nc2ccccc23)nc(NCCc2cn[nH]c2)c1C` [Compound 142, 1-(4-((2-(1H-pyrazol-4-yl)ethyl)amino)-5,6-dimethylpyrimidine-2-carbonyl)spiro[azetidine-3,3′-indolin]-2′-one], the “AC1.4 Human” value is 4.3845 µM and the EC50 is 31.8 µM.

Take `COC[C@H](NC(=O)c1nc(C)c(C)c(NCCc2cn[nH]c2)n1)c1cccc(F)c1` [Compound 49, (R)-4-((2-(1H-pyrazol-4-yl)ethyl)amino)-N-(1-(3-fluorophenyl)-2-methoxyethyl)-5,6-dimethylpyrimidine-2-carboxamide]: the “AC1.4 Human” value came to 0.3055 µM and the EC50 worked out at 2.1 µM.

Take `Cc1nc(C(=O)NCc2cccc(F)c2)nc(NCCc2cn[nH]c2)c1C` [Compound 32, 4-((2-(1H-pyrazol-4-yl)ethyl)amino)-N-(3-fluorobenzyl)-5,6-dimethylpyrimidine-2-carboxamide]: the “AC1.4 Human” value stood at 0.193 µM and the EC50 came to 0.929 µM.

In the case of `Cc1nc(C(=O)NC(C)c2ccncc2F)nc(NCCc2cn[nH]c2)c1C` (stereo not drawn) [Compound 110, 4-((2-(1H-pyrazol-4-yl)ethyl)amino)-N-(1-(3-fluoropyridin-4-yl)ethyl)-5,6-dimethylpyrimidine-2-carboxamide], the “AC1.4 Human” value was determined as 1.9815 µM and the EC50 is 16.2 µM.

Consider `Cc1nc(C(=O)N2CC(O)(c3cccc(F)c3)C2)nc(NCCc2cn[nH]c2)c1C` [Compound 3, (4-((2-(1H-pyrazol-4-yl)ethyl)amino)-5,6-dimethylpyrimidin-2-yl)(3-(3-fluorophenyl)-3-hydroxyazetidin-1-yl)methanone], for which the “AC1.4 Human” value stood at 0.0165 µM and the EC50 is 0.653 µM.

For the molecule `COCC(c1ccc(F)cc1)N(C)C(=O)c1nc(C)c(C)c(NCCc2cn[nH]c2)n1` (stereo not drawn) [Compound 92, 4-((2-(1H-pyrazol-4-yl)ethyl)amino)-N-(1-(4-fluorophenyl)-2-methoxyethyl)-N,5,6-trimethylpyrimidine-2-carboxamide], the “AC1.4 Human” value is 1.1995 µM and the EC50 was 5.68 µM.

For `Cc1nc(C(=O)N2CCC[C@@H]2c2ccc(F)cc2)nc(NCCc2cn[nH]c2)c1C` [Compound 86, (R)-(4-((2-(1H-pyrazol-4-yl)ethyl)amino)-5,6-dimethylpyrimidin-2-yl)(2-(4-flurophenyl)pyrrolidin-1-yl)methanone], the “AC1.4 Human” value was 1.1115 µM and the EC50 came to 8.04 µM.

On to `Cc1nc(C(=O)NCC2CN(C(=O)c3ccccc3)C2)nc(NCCc2cn[nH]c2)c1C` [Compound 57, 4-((2-(1H-pyrazol-4-yl)ethyl)amino)-N-((1-benzoylazetidin-3-yl)methyl)-5,6-dimethylpyrimidine-2-carboxamide], for which the “AC1.4 Human” value turned out to be 0.396 µM and the EC50 came out at 2.88 µM.

`Cc1nc(C(=O)N2CCC(C(F)(F)F)CC2)nc(NCCc2cn[nH]c2)c1C` [Compound 119, (4-((2-(1H-pyrazol-4-yl)ethyl)amino)-5,6-dimethylpyrimidin-2-yl)(4-(trifluoromethyl)piperidin-1-yl)methanone]: the “AC1.4 Human” value came out at 32.854 µM and the EC50 turned out to be 47.2 µM.

For the molecule `Cc1nc(C(=O)N[C@@H](C)c2cccs2)nc(NCCc2cn[nH]c2)c1C` [Compound 8, (S)-4-((2-(1H-pyrazol-4-yl)ethyl)amino)-5,6-dimethyl-N-(1-(thiophen-2-yl)ethyl)pyrimidine-2-carboxamide], the “AC1.4 Human” value is 0.0325 µM and the EC50 worked out at 0.182 µM.

On to `Cc1nc(C(=O)NC(C)(C)c2ccccn2)nc(NCCc2cn[nH]c2)c1C` [Compound 69, 4-((2-(1H-pyrazol-4-yl)ethyl)amino)-5,6-dimethyl-N-(2-(pyridin-2-yl)propan-2-yl)pyrimidine-2-carboxamide], for which the “AC1.4 Human” value amounted to 0.5395 µM and the EC50 came out at 4.18 µM.

The values are drawn from patent US20240067631A1, “PYRAZOLE DERIVATIVES USEFUL AS NAMPT MODULATORS” (Cytokinetics, Inc., priority 2020, published 2024).
